Laboratory results reported in publication PMC8215293 (The Journal of Biological Chemistry, 2021).
Where “and” joins values, the source holds several entries; their conditions need not be identical. Identical values can stand only once.

Legend:
CYP11B2 = target: T1, CYP11B2 (Homo sapiens, UniProt P19099); format: binding; settings: isolated CYP11B2 0.2 μM, 5 cm path length
T1 sequence (P19099 30-503 limits assumed): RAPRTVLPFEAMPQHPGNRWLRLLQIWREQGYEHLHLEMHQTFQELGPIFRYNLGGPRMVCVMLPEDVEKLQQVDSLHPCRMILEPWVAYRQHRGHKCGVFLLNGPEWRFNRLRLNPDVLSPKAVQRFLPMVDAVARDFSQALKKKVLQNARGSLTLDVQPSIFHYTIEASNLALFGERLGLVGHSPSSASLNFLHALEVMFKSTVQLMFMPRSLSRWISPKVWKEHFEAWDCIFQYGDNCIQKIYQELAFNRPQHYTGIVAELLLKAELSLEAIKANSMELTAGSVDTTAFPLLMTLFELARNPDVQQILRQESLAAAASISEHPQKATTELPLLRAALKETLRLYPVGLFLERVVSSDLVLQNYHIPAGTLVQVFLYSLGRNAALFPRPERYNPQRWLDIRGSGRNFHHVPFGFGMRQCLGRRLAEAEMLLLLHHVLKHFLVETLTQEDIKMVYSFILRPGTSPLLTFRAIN

[1] = target: T2, adrenodoxin–CYP11B2 fusion protein (Homo sapiens, UniProt P10109+P19099); format: binding; settings: Adx-CYP11B2 fusion 0.2 μM, 5 cm path length
T2 sequence (P10109+P19099 with tags, fused parts or gaps): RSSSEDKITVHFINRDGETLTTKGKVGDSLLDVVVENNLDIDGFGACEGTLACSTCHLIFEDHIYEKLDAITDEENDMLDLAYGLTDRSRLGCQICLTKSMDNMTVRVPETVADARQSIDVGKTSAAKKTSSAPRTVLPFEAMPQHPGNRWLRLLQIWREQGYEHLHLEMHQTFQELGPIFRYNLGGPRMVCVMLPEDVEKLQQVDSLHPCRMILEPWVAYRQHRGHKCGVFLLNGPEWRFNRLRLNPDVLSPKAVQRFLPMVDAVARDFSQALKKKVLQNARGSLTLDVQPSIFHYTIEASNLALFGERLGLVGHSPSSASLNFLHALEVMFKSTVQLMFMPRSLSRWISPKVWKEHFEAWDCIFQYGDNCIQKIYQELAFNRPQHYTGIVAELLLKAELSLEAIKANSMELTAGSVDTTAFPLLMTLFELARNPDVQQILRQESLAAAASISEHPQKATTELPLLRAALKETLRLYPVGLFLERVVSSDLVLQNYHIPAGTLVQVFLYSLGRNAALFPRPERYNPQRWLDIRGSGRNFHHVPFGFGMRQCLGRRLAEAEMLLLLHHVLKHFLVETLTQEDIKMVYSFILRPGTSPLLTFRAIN

[2] = test system: adrenodoxin–CYP11B2 fusion protein; format: binding, human; settings: fusion versus isolated CYP11B2

With `N#Cc1ccc([C@H]2CCc3cncn32)c(F)c1` [LCI699, osilodrostat] the Amax (CYP11B2) was 0.019, the Amax [1] was 0.032 and the “increase of Amax (enzyme population binding inhibitor at saturation)” value [2] was ~1.7 fold and 1.7 fold. For the same compound, the “increase of Kd” value [2] was 1.8 fold.
